Results published in patent US20230278972A1, “SUBSTITUTED HALOALKYL SULFONANILIDE HERBICIDES” (FMC Corporation, priority 2020, published 2023).

Legend:
Format in all cases: in vivo
[1] = tested on: wheat (Triticum aestivum); assay: Test A postemergence, wheat; details: Postemergence, 0 to 100 scale (0 no effect, 100 complete control); for Wheat plant response rating: visual injury vs untreated controls after approx. 10 days
Outline: (§1)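 Compounds in non-phytotoxic solvent with surfactant. Soil: loam/sand. Preemergence via directed soil spray after seeding; postemergence on seedlings 2–10 cm, one- to two-leaf.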

[2] = tested on: ragweed (common ragweed, Ambrosia artemisiifolia); assay: Test A preemergence, ragweed; details: Preemergence; for Ragweed plant response rating: visual injury on 0 to 100 scale (0 no effect, 100 complete control), approximately 10 days; for Plant response rating, Ragweed: 0 to 100 scale (0 no effect, 100 complete control)
Outline: (§2)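 Directed soil spray at planting gave the preemergence treatment, while foliar application to one- to two-leaf seedlings (2–10 cm) gave the postemergence one; pots held a loam and sand mixture and chemicals were carried in a non-phytotoxic solvent with surfactant.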

[3] = tested on: ragweed (common ragweed, Ambrosia artemisiifolia); assay: Test A postemergence, ragweed; details: Postemergence, 0 to 100 scale (0 no effect, 100 complete control); for Ragweed plant response rating: visual injury vs untreated controls after approx. 10 days
Outline: as §2

[4] = tested on: blackgrass (Alopecurus myosuroides); assay: Test A postemergence, blackgrass; details: Postemergence, 0 to 100 scale (0 no effect, 100 complete control); for Blackgrass plant response rating: visual injury vs untreated controls after approx. 10 days
Outline: as §2

kochia (Bassia scoparia) [5] = assay: Test A preemergence, kochia; details: Preemergence; for Kochia plant response rating: visual injury on 0 to 100 scale (0 no effect, 100 complete control), approximately 10 days; for Plant response rating, Kochia: 0 to 100 scale (0 no effect, 100 complete control)
Outline: as §2

[6] = tested on: galium (catchweed bedstraw, Galium aparine); assay: Test A postemergence, galium; details: Postemergence, 0 to 100 scale (0 no effect, 100 complete control); for Galium plant response rating: visual injury vs untreated controls after approx. 10 days
Outline: as §1

[7] = tested on: pigweed (Amaranthus retroflexus); assay: Test A preemergence, pigweed; details: for Pigweed plant response rating: visual injury on 0 to 100 scale (0 no effect, 100 complete control), approximately 10 days; for Plant response rating, Pigweed: 0 to 100 scale (0 no effect, 100 complete control)
Outline: as §1

[8] = tested on: Foxtail, Giant (giant foxtail, Setaria faberi); assay: Test A preemergence, Foxtail, Giant; details: Preemergence; for Foxtail, Giant plant response rating: visual injury on 0 to 100 scale (0 no effect, 100 complete control), approximately 10 days; for Plant response rating, Foxtail, Giant: 0 to 100 scale (0 no effect, 100 complete control)
Outline: as §2

kochia (Bassia scoparia) [9] = assay: Test A postemergence, kochia; details: Postemergence, 0 to 100 scale (0 no effect, 100 complete control); for Kochia plant response rating: visual injury vs untreated controls after approx. 10 days
Outline: as §2

[10] = tested on: pigweed (Amaranthus retroflexus); assay: Test A postemergence, pigweed; details: Postemergence, 0 to 100 scale (0 no effect, 100 complete control); for Pigweed plant response rating: visual injury vs untreated controls after approx. 10 days
Outline: as §2

[11] = tested on: barnyardgrass (Echinochloa crus-galli); assay: Test A preemergence, barnyardgrass; details: Preemergence; for Barnyardgrass plant response rating: visual injury on 0 to 100 scale (0 no effect, 100 complete control), approximately 10 days; for Plant response rating, Barnyardgrass: 0 to 100 scale (0 no effect, 100 complete control)
Outline: as §2

[12] = tested on: barnyardgrass (Echinochloa crus-galli); assay: Test A postemergence, barnyardgrass; details: Postemergence, 0 to 100 scale (0 no effect, 100 complete control); for Barnyardgrass plant response rating: visual injury vs untreated controls after approx. 10 days
Outline: as §1

[13] = tested on: Ryegrass, Italian (Italian ryegrass, Lolium multiflorum); assay: Test A postemergence, Ryegrass, Italian; details: Postemergence, 0 to 100 scale (0 no effect, 100 complete control); for Ryegrass, Italian plant response rating: visual injury vs untreated controls after approx. 10 days
Outline: as §2

[14] = tested on: Foxtail, Giant (giant foxtail, Setaria faberi); assay: Test A postemergence, Foxtail, Giant; details: Postemergence, 0 to 100 scale (0 no effect, 100 complete control); for Foxtail, Giant plant response rating: visual injury vs untreated controls after approx. 10 days
Outline: as §2

corn (Zea mays) = assay: Test A postemergence, corn; details: Postemergence, 0 to 100 scale (0 no effect, 100 complete control); for Corn plant response rating: visual injury vs untreated controls after approx. 10 days
Outline: as §2

[15] = tested on: Ryegrass, Italian (Italian ryegrass, Lolium multiflorum); assay: Test A preemergence, Ryegrass, Italian; details: Preemergence; for Ryegrass, Italian plant response rating: visual injury on 0 to 100 scale (0 no effect, 100 complete control), approximately 10 days; for Plant response rating, Ryegrass, Italian: 0 to 100 scale (0 no effect, 100 complete control)
Outline: as §2

[16] = 125 g ai/ha, visual injury approx. 10 days
[17] = 500 g ai/ha, visual injury approx. 10 days
[18] = 125 g ai/ha, visual injury, approx. 10 days
[19] = 1000 g ai/ha, visual injury, approx. 10 days

## COC1CCN(C(=O)c2cc(NS(=O)(=O)C(F)(F)F)c(C)c(F)c2C)CC1 [Compound 110]
[1]; [16]
  Plant response rating, Wheat: 20
[1]; 500 g ai/ha
  Wheat plant response rating: 60
[2]; 125 g ai/ha
  Ragweed plant response rating: 80
[2]; 500 g ai/ha
  Plant response rating, Ragweed: 90
[3]; [16]
  Plant response rating, Ragweed: 90
[3]; 500 g ai/ha
  Ragweed plant response rating: 90
[4]; [16]
  Plant response rating, Blackgrass: 0
[4]; 500 g ai/ha
  Blackgrass plant response rating: 0
Kochia (Bassia scoparia) [5]; 125 g ai/ha
  Kochia plant response rating: 80
Kochia (Bassia scoparia) [5]; 500 g ai/ha
  Plant response rating, Kochia: 100
[6]; [16]
  Plant response rating, Galium: 70
[6]; 500 g ai/ha
  Galium plant response rating: 80
[7]; 125 g ai/ha
  Pigweed plant response rating: 80
[7]; 500 g ai/ha
  Plant response rating, Pigweed: 100
[8]; 125 g ai/ha
  Foxtail, Giant plant response rating: 90
[8]; 500 g ai/ha
  Plant response rating, Foxtail, Giant: 100
Kochia (Bassia scoparia) [9]; [16]
  Plant response rating, Kochia: 10
Kochia (Bassia scoparia) [9]; 500 g ai/ha
  Kochia plant response rating: 50
[10]; [16]
  Plant response rating, Pigweed: 70
[10]; 500 g ai/ha
  Pigweed plant response rating: 100
[11]; 125 g ai/ha
  Barnyardgrass plant response rating: 40
[11]; 500 g ai/ha
  Plant response rating, Barnyardgrass: 90
[12]; [16]
  Plant response rating, Barnyardgrass: 20
[12]; 500 g ai/ha
  Barnyardgrass plant response rating: 80
[13]; [16]
  Plant response rating, Ryegrass, Italian: 0
[13]; 500 g ai/ha
  Ryegrass, Italian plant response rating: 50
[14]; [16]
  Plant response rating, Foxtail, Giant: 0
[14]; 500 g ai/ha
  Foxtail, Giant plant response rating: 90
Corn (Zea mays); [16]
  Plant response rating, Corn: 0
Corn (Zea mays); 500 g ai/ha
  Corn plant response rating: 10
[15]; 125 g ai/ha
  Ryegrass, Italian plant response rating: 20
[15]; 500 g ai/ha
  Plant response rating, Ryegrass, Italian: 90

## Cc1cc(Cl)c(C(=O)N2CCOCC2)cc1N(S(=O)(=O)C(F)(F)F)S(=O)(=O)C(F)(F)F [Compound 250]
[1]; 125 g ai/ha
  Plant response rating, Wheat: 20
[1]; [17]
  Plant response rating, Wheat: 30
[2]; [18]
  Plant response rating, Ragweed: 80
[2]; 500 g ai/ha
  Ragweed plant response rating: 90
[3]; 125 g ai/ha
  Plant response rating, Ragweed: 80
[3]; [17]
  Plant response rating, Ragweed: 90
[4]; 125 g ai/ha
  Plant response rating, Blackgrass: 0
[4]; [17]
  Plant response rating, Blackgrass: 50
Kochia (Bassia scoparia) [5]; [18]
  Plant response rating, Kochia: 80
Kochia (Bassia scoparia) [5]; 500 g ai/ha
  Kochia plant response rating: 100
[6]; 125 g ai/ha
  Plant response rating, Galium: 50
[6]; [17]
  Plant response rating, Galium: 80
[7]; [18]
  Plant response rating, Pigweed: 100
[7]; 500 g ai/ha
  Pigweed plant response rating: 100
[8]; [18]
  Plant response rating, Foxtail, Giant: 90
[8]; 500 g ai/ha
  Foxtail, Giant plant response rating: 100
Kochia (Bassia scoparia) [9]; 125 g ai/ha
  Plant response rating, Kochia: 70
Kochia (Bassia scoparia) [9]; [17]
  Plant response rating, Kochia: 90
[10]; 125 g ai/ha
  Plant response rating, Pigweed: 80
[10]; [17]
  Plant response rating, Pigweed: 90
[11]; [18]
  Plant response rating, Barnyardgrass: 40
[11]; 500 g ai/ha
  Barnyardgrass plant response rating: 90
[12]; 125 g ai/ha
  Plant response rating, Barnyardgrass: 20
[12]; [17]
  Plant response rating, Barnyardgrass: 40
[13]; 125 g ai/ha
  Plant response rating, Ryegrass, Italian: 0
[13]; [17]
  Plant response rating, Ryegrass, Italian: 20
[14]; 125 g ai/ha
  Plant response rating, Foxtail, Giant: 0
[14]; [17]
  Plant response rating, Foxtail, Giant: 10
Corn (Zea mays); 125 g ai/ha
  Plant response rating, Corn: 0
Corn (Zea mays); [17]
  Plant response rating, Corn: 30
[15]; [18]
  Plant response rating, Ryegrass, Italian: 60
[15]; 500 g ai/ha
  Ryegrass, Italian plant response rating: 90

## Cc1cc(C)c(C(=O)N2CCC(C)CC2)cc1NS(=O)(=O)C(F)(F)F [Compound 264]
[1]; [19]
  Plant response rating, Wheat: 70
[2]; 1000 g ai/ha
  Plant response rating, Ragweed: 90
[3]; [19]
  Plant response rating, Ragweed: 60
[4]; [19]
  Plant response rating, Blackgrass: 60
Kochia (Bassia scoparia) [5]; 1000 g ai/ha
  Plant response rating, Kochia: 70
[6]; [19]
  Plant response rating, Galium: 70
[7]; 1000 g ai/ha
  Plant response rating, Pigweed: 80
[8]; 1000 g ai/ha
  Plant response rating, Foxtail, Giant: 100
Kochia (Bassia scoparia) [9]; [19]
  Plant response rating, Kochia: 20
[10]; [19]
  Plant response rating, Pigweed: 60
[11]; 1000 g ai/ha
  Plant response rating, Barnyardgrass: 100
[12]; [19]
  Plant response rating, Barnyardgrass: 50
[13]; [19]
  Plant response rating, Ryegrass, Italian: 50
[14]; [19]
  Plant response rating, Foxtail, Giant: 40
Corn (Zea mays); [19]
  Plant response rating, Corn: 20
[15]; 1000 g ai/ha
  Plant response rating, Ryegrass, Italian: 100

## Cc1cc(C)c(-c2ccnn(CC(F)(F)F)c2=O)cc1NS(=O)(=O)C(F)(F)F [Compound 57]
[1]; [16]
  Plant response rating, Wheat: 60
[1]; 500 g ai/ha
  Wheat plant response rating: 70
[2]; 125 g ai/ha
  Ragweed plant response rating: 40
[2]; 500 g ai/ha
  Plant response rating, Ragweed: 70
[3]; [16]
  Plant response rating, Ragweed: 0
[3]; 500 g ai/ha
  Ragweed plant response rating: 30
[4]; [16]
  Plant response rating, Blackgrass: 0
[4]; 500 g ai/ha
  Blackgrass plant response rating: 70
Kochia (Bassia scoparia) [5]; 125 g ai/ha
  Kochia plant response rating: 60
Kochia (Bassia scoparia) [5]; 500 g ai/ha
  Plant response rating, Kochia: 60
[6]; [16]
  Plant response rating, Galium: 80
[6]; 500 g ai/ha
  Galium plant response rating: 90
[7]; 125 g ai/ha
  Pigweed plant response rating: 50
[7]; 500 g ai/ha
  Plant response rating, Pigweed: 80
[8]; 125 g ai/ha
  Foxtail, Giant plant response rating: 100
[8]; 500 g ai/ha
  Plant response rating, Foxtail, Giant: 100
Kochia (Bassia scoparia) [9]; [16]
  Plant response rating, Kochia: 0
Kochia (Bassia scoparia) [9]; 500 g ai/ha
  Kochia plant response rating: 20
[10]; [16]
  Plant response rating, Pigweed: 0
[10]; 500 g ai/ha
  Pigweed plant response rating: 50
[11]; 125 g ai/ha
  Barnyardgrass plant response rating: 100
[11]; 500 g ai/ha
  Plant response rating, Barnyardgrass: 100
[12]; [16]
  Plant response rating, Barnyardgrass: 40
[12]; 500 g ai/ha
  Barnyardgrass plant response rating: 90
[13]; [16]
  Plant response rating, Ryegrass, Italian: 30
[13]; 500 g ai/ha
  Ryegrass, Italian plant response rating: 90
[14]; [16]
  Plant response rating, Foxtail, Giant: 30
[14]; 500 g ai/ha
  Foxtail, Giant plant response rating: 90
Corn (Zea mays); [16]
  Plant response rating, Corn: 30
Corn (Zea mays); 500 g ai/ha
  Corn plant response rating: 80
[15]; 125 g ai/ha
  Ryegrass, Italian plant response rating: 90
[15]; 500 g ai/ha
  Plant response rating, Ryegrass, Italian: 90
